Measured values published in ChEMBL document CHEMBL1130836, “Anti-AIDS agents. 31. Synthesis and anti-HIV activity of 4-substituted 3',4'-di-O-(-)-camphanoyl-(+)-cis-khellactone (DCK) thiolactone analogs” (Bioorg Med Chem Lett, 1998).
pEC50, pIC50: −log10 of the molar value.

Assays:
[1] = Therapeutic index value was evaluated as the ratio of IC50/EC50; conditions: read-out: TI
H9 [2] = assay: Anti-HIV activity was evaluated as the concentration required to inhibit HIV-1 replication in H9 lymphocyte cells by 50%; assay type: functional, cell-based; conditions: Homo sapiens
H9 [3] = assay: Anti-HIV activity was evaluated as the concentration required to inhibit the growth of uninfected H9 lymphocyte cells by 50%; assay type: functional, cell-based; conditions: Homo sapiens

CC1(C)Oc2ccc3ccc(=O)oc3c2[C@@H](OC(=O)C23CCC(C)(C(=O)O2)C3(C)C)[C@H]1OC(=O)C12CCC(C)(C(=O)O1)C2(C)C (stereo partly drawn)
selectivity ratio [1]: 137000

Cc1cc(=S)oc2c3c(ccc12)OC(C)(C)[C@H](OC(=O)C12CCC(C)(C(=O)O1)C2(C)C)[C@@H]3OC(=O)C12CCC(C)(C(=O)O1)C2(C)C (stereo partly drawn)
selectivity ratio [1]: > 21300 | pEC50 (H9 [2]): 8.14 | pIC50 (H9 [3]): < 3.82

CC1(C)Oc2ccc3c(-c4ccccc4)cc(=S)oc3c2[C@@H](OC(=O)C23CCC(C)(C(=O)O2)C3(C)C)[C@H]1OC(=O)C12CCC(C)(C(=O)O1)C2(C)C (stereo partly drawn)
selectivity ratio [1]: > 56.6 | pEC50 (H9 [2]): 5.61 | pIC50 (H9 [3]): < 3.85

CCCc1cc(=S)oc2c3c(ccc12)OC(C)(C)[C@H](OC(=O)C12CCC(C)(C(=O)O1)C2(C)C)[C@@H]3OC(=O)C12CCC(C)(C(=O)O1)C2(C)C (stereo partly drawn)
selectivity ratio [1]: > 1150 | pEC50 (H9 [2]): 6.89 | pIC50 (H9 [3]): < 3.83

CC1(C)Oc2ccc3ccc(=S)oc3c2[C@@H](OC(=O)C23CCC(C)(C(=O)O2)C3(C)C)[C@H]1OC(=O)C12CCC(C)(C(=O)O1)C2(C)C (stereo partly drawn)
selectivity ratio [1]: > 5390 | pEC50 (H9 [2]): 7.54 | pIC50 (H9 [3]): < 3.81
